Measurements from patent US6982277B2, “P53 inhibitors and therapeutic use of the same” (The Board of Trutees of the University of Illinois, priority 1999, dated 2006).
Entries after “also recorded” stand apart in the source; their conditions may differ.

Key:
[1] = tested on: p53; assay: suppression of p53-dependent transcriptional activation (lacZ, X-gal staining) in ConA cells treated with doxorubicin; assay type: cell-based, mouse; settings: 0.2 μg/ml doxorubicin, 24 hours; test compounds about 10 to about 20 μM
[2] = tested on: p53; assay: 14C-thymidine incorporation in tissues of gamma-irradiated mice (autoradiograms); assay type: in vivo, mouse; settings: 10 Gy; single i.p. injection 2.2 mg/kg five minutes before irradiation
Procedure: Four-week-old p53-deficient mice and p53 wild-type (wt) mice were whole body gamma irradiated (10 Gy). Pifithrin-alpha was injected in one of the p53 wild-type animals five minutes before irradiation. ^14C-thymidine (10 mCi per animal) was injected intraperitoneally into each mouse 8 hours after irradiation. The mice were sacrificed 24 hours after irradiation and whole body sectioned (25 μm thick) using cryostatic microtome were prepared and exposed to X-ray film to monitor the distribution of ^14C in the tissue. FIG. 8 presents autoradiograms of representative sections. Arrows indicate ^14C-thymidine incorporation in the skin and intestine.

[3] = tested on: p53-deficient tumor xenografts; assay: therapy response of p53-deficient tumors in mice; assay type: in vivo, mouse; settings: mouse, in vivo
Text: The above-described tests using PFT-α and PFT-β illustrate the therapeutic use of temporary p53 inhibitors to reduce the side effects of radiation therapy or chemotherapy for human cancers that have lost functional p53.

[4] = toxicity comparison (FIG. 16); settings: compared with PFT-α
Procedure: Then, a p53 inhibitor was applied in a concentration of 1 μM to 20 μM to the test cells in the presence of the p53 activator. Cytotoxicity of the p53 inhibitors also was determined by standard assays. An estimation of antiapoptotic activity of the p53 inhibitor compounds was based on an ability to suppress apoptotic cell death in standard cell systems sensitive to p53-dependent apoptosis (i.e., mouse embryonic fibroblasts transformed with Ela+ras, line C8, described by S. W. Lowe et al., Cell, 74, pp. 957–968 (1993)). p53 dependence of the compound activity was analyzed by testing its effect on p53-deficient cells (i.e., radiosensitivity or drug sensitivity of p53−/− mouse embryonic fibroblasts transformed with Ela+ras, line A4, described by Lowe et al., 1993).
(§1) As previously stated, the tests and experiments set forth in FIGS. 1–15 using PFT-α were repeated using PFT-β.

[5] = tested on: p53; assay: p53 protein in UV-irradiated ConA cells (immunoblotting, two-dimensional gel, nuclear and cytoplasmic fractions); assay type: cell-based, mouse
Procedure: PFT-α was added to the cells before UV treatment and total cell lysates were prepared 18 hours later.
FIG. 6(d) illustrates that PFT-α changes the nuclear and cytoplasmic distribution of p53. Nuclear and cytoplasmic fractions were isolated from UV-treated ConA cells 6 hours after UV irradiation. p53 and p21^waf1 proteins were detected by immunoblotting. […] In particular, results of a gel shift assay using cell lysates from either untreated or UV-irradiated ConA cells grown in medium containing PFT-α are shown. […] The decline in the amount of bound DNA is proportional to the overall decrease in p53 content in the presence of PFT-α.

[6] = tested on: tumor; assay: tumor volume in C57BL mice treated with cyclophosphamide; assay type: in vivo, mouse; settings: CTX at days 0, 1, and 2, sixteen days
Procedure: FIG. 15 is a plot of tumor volume vs. days for C57BL mice treated with cyclophosphamide (CTX), with and without administration of PFT-β. The mice were treated with CTX at days 0, 1, and 2, and tumor volume was monitored for sixteen days.

[7] = toxicity of chemotherapeutics with p53 inhibitor; settings: mouse, in vivo
[8] = tested on: p53; assay: survival of mice after whole-body gamma irradiation; assay type: in vivo, mouse; settings: 2.2 mg/kg i.p. five minutes prior to irradiation
Procedure: In particular, FIG. 7 illustrates that pifithrin-alpha protects mice from radiation-induced death. In this test, two different strains of mice (C57BL and Balb(c)) were treated with lethal and sublethal doses of whole-body gamma radiation. A comparison was made between (i) untreated unirradiated mice, (ii) unirradiated mice that received a single intraperitoneal (i.p.) injection of PFT-α, (iii) untreated gamma-irradiated mice, and (iv) mice injected intraperitoneally with PFT-α immediately before gamma irradiation.
In the plots of FIG. 7, whole-body gamma irradiated mice (60 total) were divided into four groups. Ten mice from each group were injected i.p. with pifithrin-alpha (2.2 mg/kg) five minutes prior to irradiation. […] The experiments were repeated at least three times with 10 mice per each experimental subgroup.

[9] = tested on: p53; assay: long-term survival and cancer development of mice after whole body radiation; assay type: in vivo; settings: 30 survivors rescued from lethal gamma irradiation, seven months after irradiation
Procedure: Both wild-type (wt) mice and p53-deficient mice were irradiated. One group of the wild-type mice were treated with PFT-α. […] In contrast, fifteen untreated wild-type mice died within 100 days. The p53-deficient mice were unaffected for about 125 days, then all expired over the next 25–30 days.
Suppression of p53 typically results in the survival of cells that otherwise are eliminated by p53, which can increase the risk of new cancer development. For example, p53-deficient mice are extremely sensitive to radiation-induced tumorigenesis. […] Thus, temporary suppression of p53 activity is different from p53 deficiency in terms of cancer predisposition.

[10] = tested on: p53; assay: tests and experiments of FIGS. 1–15 repeated using PFT-β
Text: The results of these tests are illustrated in attached FIGS. 1–16. These figures, in general, are based on tests performed on compounds of structural formulae (V) and (VI). In the following Figures, test results illustrated for compound (V), i.e., PFT-α, were repeated for compound (VI), i.e., PFT-β.
as §1

Row | SMILES | suppression of p53-dependent lacZ expression (X-gal) [1] | p53-mediated growth arrest in vivo (14C-thymidine incorporation) [2] | efficacy of chemo- or radiation therapy of p53 deficient mouse tumors [3] | toxicity [4] | nuclear and cytoplasmic distribution of p53 ([5]; 6 hours after UV irradiation) | phosphorylation / post-translational modifications of p53 ([5]; after DNA-damaging treatments) | tumor growth (tumor volume) [6] | toxicity of chemotherapeutics [7] | survival at higher, lethal doses of irradiation [8] | tumors or pathological lesions in survivors / tumor incidence in irradiated animals [9] | test results compared with PFT-α [10]
1 | N=c1sc2c(n1CC(=O)c1ccc(I)cc1)CCCC2 [86B10, 2-[2-imino-4,5,6,7-tetrahydro-1,3-benzothiazol-3(2H)-yl]-1-(4-iodophenyl)-1-ethanone] | similar, but weaker, p53-inhibition, effect than PFT-α | – | – | – | – | – | – | – | – | – | –
2 | Cc1ccc(-c2cn3c4c(sc3n2)CCCC4)cc1 [PFT-β, 2-(4-methylphenyl)-5,6,7,8-tetrahydrobenzo[d]imidazo[2,1-b]thiazole] | – | suppress p53-dependent radiation-induced growth arrest in rapidly proliferating mouse tissues | do not reduce the efficacy of chemo- or radiation therapy of p53 deficient mouse tumors | substantially lower than the toxicity of PFT-α | reduce nuclear accumulation of p53 | do not effect either post-translational modifications of p53 or the DNA binding affinity of p53 | substantial decrease in tumor growth | reduce the toxicity of chemotherapeutics | rescue mice from lethal doses of gamma radiation using a single i.p. injection | do not result in a high incidence of tumors in irradiated animals | essentially identical to test results using PFT-α; also recorded: essentially identical to the results from the tests using PFT-α
